Test results reported in ChEMBL document CHEMBL1137340, “Binding of 13-amidohuprines to acetylcholinesterase: exploring the ligand-induced conformational change of the gly117-gly118 peptide bond in the oxyanion hole” (J Med Chem, 2006).

What was measured:
Acetylcholinesterase [1] = target: T1, Acetylcholinesterase (Bos taurus, UniProt P23795)
T1 sequence (P23795 whole entry): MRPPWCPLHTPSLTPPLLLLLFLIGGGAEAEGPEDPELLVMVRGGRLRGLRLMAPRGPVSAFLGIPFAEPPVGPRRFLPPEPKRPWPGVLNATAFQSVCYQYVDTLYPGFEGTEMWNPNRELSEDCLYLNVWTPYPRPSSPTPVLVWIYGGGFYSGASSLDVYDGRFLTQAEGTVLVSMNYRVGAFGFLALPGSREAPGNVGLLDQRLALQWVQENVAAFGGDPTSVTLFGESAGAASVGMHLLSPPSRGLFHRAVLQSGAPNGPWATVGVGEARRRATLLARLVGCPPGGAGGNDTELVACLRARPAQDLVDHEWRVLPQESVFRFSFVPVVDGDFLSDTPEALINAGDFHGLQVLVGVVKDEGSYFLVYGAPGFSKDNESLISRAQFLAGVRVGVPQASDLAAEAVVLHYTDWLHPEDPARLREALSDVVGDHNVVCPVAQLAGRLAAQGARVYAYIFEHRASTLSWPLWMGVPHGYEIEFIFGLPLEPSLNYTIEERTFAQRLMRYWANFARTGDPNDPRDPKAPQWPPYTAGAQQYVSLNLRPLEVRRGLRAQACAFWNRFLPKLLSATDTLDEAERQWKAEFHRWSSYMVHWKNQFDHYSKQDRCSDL
Description: Inhibition of bovine erythrocyte AChE

Cholinesterase = Cholinesterase (Homo sapiens, UniProt P06276)
Sequence of Cholinesterase (P06276 whole entry): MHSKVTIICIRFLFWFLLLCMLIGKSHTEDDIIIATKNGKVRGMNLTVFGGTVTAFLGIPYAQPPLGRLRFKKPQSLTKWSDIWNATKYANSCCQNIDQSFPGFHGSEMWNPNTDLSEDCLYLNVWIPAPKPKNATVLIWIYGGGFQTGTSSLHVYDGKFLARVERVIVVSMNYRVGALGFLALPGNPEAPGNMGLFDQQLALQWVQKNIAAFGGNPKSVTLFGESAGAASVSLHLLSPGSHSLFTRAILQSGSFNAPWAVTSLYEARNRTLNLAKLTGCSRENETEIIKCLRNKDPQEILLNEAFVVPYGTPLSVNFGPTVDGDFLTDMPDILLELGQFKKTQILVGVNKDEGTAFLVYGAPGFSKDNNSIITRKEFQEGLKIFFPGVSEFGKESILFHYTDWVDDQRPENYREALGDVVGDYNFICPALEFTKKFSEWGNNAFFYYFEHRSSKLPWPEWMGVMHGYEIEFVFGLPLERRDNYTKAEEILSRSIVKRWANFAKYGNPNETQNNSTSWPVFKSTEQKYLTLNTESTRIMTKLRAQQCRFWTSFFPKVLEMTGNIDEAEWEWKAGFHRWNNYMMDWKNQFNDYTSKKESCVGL
Description: Inhibition of human serum BChE

Acetylcholinesterase [2] = target: T1, Acetylcholinesterase; remark: listed apart in the source
Description: Inhibition of bovine erythrocyte AChE after 45 mins

Acetylcholinesterase [3] = target: Acetylcholinesterase (Homo sapiens, UniProt P22303)
Sequence of Acetylcholinesterase (Homo sapiens, UniProt P22303) (P22303 whole entry): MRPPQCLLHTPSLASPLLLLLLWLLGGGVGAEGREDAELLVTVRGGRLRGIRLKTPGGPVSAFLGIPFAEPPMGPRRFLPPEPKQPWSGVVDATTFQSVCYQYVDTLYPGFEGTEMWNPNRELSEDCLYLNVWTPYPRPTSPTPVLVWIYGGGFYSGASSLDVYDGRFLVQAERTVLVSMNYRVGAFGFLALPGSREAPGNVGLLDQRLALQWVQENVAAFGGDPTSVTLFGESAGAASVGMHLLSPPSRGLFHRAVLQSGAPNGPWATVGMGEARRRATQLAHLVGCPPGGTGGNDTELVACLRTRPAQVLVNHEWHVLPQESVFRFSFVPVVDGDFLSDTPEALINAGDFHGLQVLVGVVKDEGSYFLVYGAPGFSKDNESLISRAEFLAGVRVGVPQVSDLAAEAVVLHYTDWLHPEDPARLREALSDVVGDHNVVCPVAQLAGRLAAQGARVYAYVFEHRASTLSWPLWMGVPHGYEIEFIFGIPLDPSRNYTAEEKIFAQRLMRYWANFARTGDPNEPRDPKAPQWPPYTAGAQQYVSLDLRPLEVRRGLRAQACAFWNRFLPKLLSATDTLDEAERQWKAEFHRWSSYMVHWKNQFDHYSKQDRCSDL
Description: Inhibition of human erythrocyte AChE

**Q.** `CC1=C[C@@H]2Cc3nc4cc(Cl)ccc4c(N)c3[C@H](C1)C2` was tested. Which IC50 (Acetylcholinesterase [1]) did it give?
**A.** 1.15 nM

**Q.** How did the IC50 (Acetylcholinesterase [1]) turn out when `CCC1=C[C@@H]2Cc3nc4ccccc4c(N)c3[C@H](C1)C2` was run?
**A.** 27.4 nM

**Q.** With `CCC1=C[C@@H]2Cc3nc4cc(C)ccc4c(N)c3[C@H](C1)C2` as the molecule, how does the IC50 (Acetylcholinesterase [1]) read?
**A.** 4.5 nM

**Q.** Which IC50 (Acetylcholinesterase [1]) does the source give for `CCC1=C[C@@H]2Cc3nc4cc(Cl)ccc4c(N)c3[C@H](C1)C2` here?
**A.** 1.3 nM

**Q.** With `CCC1=CC2Cc3nc4cc(Cl)ccc4c(N)c3C(C1)C2` (racemic) as the molecule, how does the IC50 (Acetylcholinesterase [1]) read?
**A.** 2.77 nM

**Q.** With `CC12CC3Cc4nc5cc(Cl)ccc5c(N)c4C(C1)C3N2S(C)(=O)=O` (racemic) as the molecule, how does the IC50 (Acetylcholinesterase [1]) read?
**A.** 1320 nM

**Q.** And the IC50 (Cholinesterase)?
**A.** 9220 nM

**Q.** And the IC50 (Acetylcholinesterase [2])?
**A.** 304 nM

**Q.** With `CC12CC3Cc4nc5cc(Cl)ccc5c(N)c4C(C1)C3N2` (racemic) as the molecule, how does the IC50 (Acetylcholinesterase [1]) read?
**A.** 5680 nM

**Q.** What about the IC50 (Cholinesterase) of the same molecule?
**A.** > 10000 nM

**Q.** And the IC50 (Acetylcholinesterase [2])?
**A.** 4380 nM

**Q.** How did the IC50 (Acetylcholinesterase [1]) turn out when `CC(=O)NC1C2C=C(C)CC1c1c(nc3cc(Cl)ccc3c1N)C2` (racemic; form 1) was run?
**A.** 1690 nM

**Q.** And the IC50 (Cholinesterase)?
**A.** 8490 nM

**Q.** And the IC50 (Acetylcholinesterase [2])?
**A.** 1370 nM

**Q.** Which IC50 (Acetylcholinesterase [3]) does the source give for `CC1=CC2Cc3nc4cc(Cl)ccc4c(N)c3C(C1)C2NC=O` (racemic; form 1) here?
**A.** 98 nM

**Q.** And the IC50 (Cholinesterase)?
**A.** > 10000 nM

**Q.** With `CC1=CC2Cc3nc4cc(Cl)ccc4c(N)c3C(C1)C2NS(C)(=O)=O` (racemic; form 1) as the molecule, how does the IC50 (Acetylcholinesterase [1]) read?
**A.** 118 nM

**Q.** And the IC50 (Acetylcholinesterase [3])?
**A.** 40.5 nM

**Q.** And the IC50 (Cholinesterase)?
**A.** > 10000 nM

**Q.** What about the IC50 (Acetylcholinesterase [2]) of the same molecule?
**A.** 39 nM

**Q.** `CC1=CC2Cc3nc4cc(Cl)ccc4c(N)c3C(C1)C2N` (racemic; form 1) was tested. Which IC50 (Acetylcholinesterase [1]) did it give?
**A.** 389 nM

**Q.** And the IC50 (Acetylcholinesterase [3])?
**A.** 225 nM

**Q.** What about the IC50 (Cholinesterase) of the same molecule?
**A.** 6480 nM

**Q.** What about the IC50 (Acetylcholinesterase [2]) of the same molecule?
**A.** 447 nM

**Q.** What does the source list for `CC(=O)NC1C2C=C(C)CC1c1c(nc3cc(Cl)ccc3c1N)C2` (racemic; form 2)?
**A.** IC50 (Cholinesterase): > 10000 nM; IC50 (Acetylcholinesterase [2]): 1330 nM

**Q.** Which IC50 (Cholinesterase) does the source give for `CC1=CC2Cc3nc4cc(Cl)ccc4c(N)c3C(C1)C2NC=O` (racemic; form 2) here?
**A.** 3980 nM

**Q.** How did the IC50 (Acetylcholinesterase [1]) turn out when `CC1=CC2Cc3nc4cc(Cl)ccc4c(N)c3C(C1)C2NS(C)(=O)=O` (racemic; form 2) was run?
**A.** 1370 nM

**Q.** What about the IC50 (Acetylcholinesterase [2]) of the same molecule?
**A.** 2450 nM

**Q.** With `CC1=CC2Cc3nc4cc(Cl)ccc4c(N)c3C(C1)C2N` (racemic; form 2) as the molecule, how does the IC50 (Acetylcholinesterase [1]) read?
**A.** 482 nM

**Q.** What about the IC50 (Cholinesterase) of the same molecule?
**A.** 601 nM

**Q.** And the IC50 (Acetylcholinesterase [2])?
**A.** 478 nM
